The values below come from PMC6284057, “Combined Antibacterial Effects of Goat Cathelicidins With Different Mechanisms of Action” (Frontiers in Microbiology, 2018).

Data set [1] relates to all the cells tested (hRBC, HEF, HEK293T). The experiment in a line: Hemolysis and cytotoxicity assay. The class given is cell-based, human. To be noted: positive control. As for the experimental part: Hemolytic activity of the peptides was tested against the fresh suspension of human red blood cells (hRBC) using the hemoglobin release assay as described previously ([Panteleev et al., 2016]). Three experiments were performed with the hRBC from blood samples obtained from independent donors. The obtained data were represented as average means with standard deviations. The cytotoxicity of the peptides against HEK293T (transformed human embryonic kidney cells) and HEF (human embryonic fibroblasts) cell lines was studied using the colorimetric 3-(4,5-dimethylthiazol-2-yl)-2,5-diphenyltetrazolium bromide (MTT) dye reduction assay according to ([Panteleev and Ovchinnikova, 2017]). Three independent experiments were performed for each peptide. Half maximal inhibitory concentration (IC50) values were estimated as described previously ([Kuzmin et al., 2018]).

In the next data set the test system is M. luteus B-1314. The class given is cell-based, Micrococcus luteus. To be noted: Mueller-Hinton broth, 10^6 CFU/ml, peptide diluted in 0.1% BSA, 37°C, 24 h, median of at least 3 experiments in triplicate. The method, then:
(§1) Antimicrobial assay was performed as described previously ([Panteleev et al., 2017b]). Briefly, mid-log phase bacterial test cultures were diluted with the 2× Mueller-Hinton broth (MH, Sigma) supplemented with 1.8% NaCl or without it so that to reach a final cell concentration of 10^6 CFU/ml. 50 μl aliquots of the obtained bacterial suspension were added to 50 μl of the peptide solutions serially diluted with 0.1% water solution of bovine serum albumin (BSA) in 96-well flat-bottom polystyrene microplates (Eppendorf #0030730011). After incubation at 37°C and 900 rpm for 24 h the minimum inhibitory concentrations (MIC) were determined as the lowest peptide concentrations that prevented growth of a test microorganism observed as visible turbidity. The results were expressed as the median values determined on the basis of at least three independent experiments performed in triplicate.

The next data set concerns K. pneumoniae (CI 287). The class given is cell-based, Klebsiella pneumoniae. To be noted: Mueller-Hinton broth, 10^6 CFU/ml, 0.1% BSA, 37°C, 24 h, median of at least 3 experiments. The method, then:
as §1

The subject of the next data set is B. subtilis B-886. The class given is cell-based, Bacillus subtilis. The note with it: Mueller-Hinton broth, 10^6 CFU/ml, 0.1% BSA, 37°C, 24 h, median of at least 3 experiments. The method, then: as §1
Data set [2] deals with A. baumannii (XDR CI 2675). Put plainly: microbe, parasite or virus in culture. The class given is cell-based, Acinetobacter baumannii. To be noted: read-out: Minimum inhibitory concentration. As for the experimental part: as §1
Another data set deals with P. aeruginosa PAO1. The class given is cell-based, Pseudomonas aeruginosa. To be noted: Mueller-Hinton broth, 10^6 CFU/ml, 0.1% BSA, 37°C, 24 h, median of at least 3 experiments. As for the experimental part:
as §1

The next data set concerns S. aureus 209P. The class given is cell-based, Staphylococcus aureus. To be noted: Mueller-Hinton broth, 10^6 CFU/ml, 0.1% BSA, 37°C, 24 h, median of at least 3 experiments. As for the experimental part: as §1
Another data set has as its system E. coli C600. The class given is cell-based, Escherichia coli. The note with it: Mueller-Hinton broth, 10^6 CFU/ml, 0.1% BSA, 37°C, 24 h, median of at least 3 experiments. As for the experimental part: as §1
Data set [3] concerns E. coli ML-35p. The class given is cell-based, Escherichia coli. To be noted: Mueller-Hinton broth, 10^6 CFU/ml, 0.1% BSA, 37°C, 24 h, median of at least 3 experiments. As for the experimental part: as §1
A further data set deals with E. coli (XDR CI 1057). Put plainly: microbe, parasite or virus in culture. The class given is cell-based, Escherichia coli. The method, then:
as §1

The subject of a further data set is E. cloacae (XDR CI 4172). Put plainly: microbe, parasite or virus in culture. The class given is cell-based, Enterobacter cloacae. To be noted: Table S2, XDR clinical isolate; NaCl content of medium not stated; read-out: Minimum inhibitory concentration. The method, then: as §1
Data set [4] concerns E. coli ML-35p. Put plainly: Resistance induction experiment. The class given is cell-based, Escherichia coli. To be noted: after 25 passages under selection; MH broth, 0.9% NaCl. The method, then: (§2) Resistance induction experiments were performed using the previously described method ([Chernysh et al., 2015]) with some modifications. Briefly, on day 1, the overnight culture of wild-type bacteria was diluted with the 2× MH broth containing 1.8% NaCl so that to reach a final cell concentration of 10^6 CFU/ml. 50 μl aliquots of the obtained bacterial suspension were added to 50 μl of the peptide solutions serially diluted with 0.1% water solution of BSA in 96-well microplates (Eppendorf #0030730011). After incubation at 37°C and 900 rpm for 22 ± 2 h, MICs were determined as described above. For each subsequent daily transfer, 5 μl of the inoculum taken from the first well with a sub-inhibitory drug concentration were diluted with 1 ml of the fresh 2× MH broth supplemented with 1.8% NaCl. […] 26 repeated passages in the presence of antimicrobial agents were made for each bacterial strain during the experiment. […] Control serial passages in the absence of the agent were also performed.

The test system of data set [5] is E. coli XDR CI 1057 (26 days with mini-ChBac7.5Nα). To be noted: Table 4, strain after 26 days with mini-ChBac7.5Nα (selection in MH broth with 0.9% NaCl). The method, then: as §1, with “After incubation at 37°C and 900 rpm for 24 h the minimum inhibitory concentrations (MIC) were determined as the lowest peptide concentrations that prevented growth of a test microorganism observed as visible turbidity.” left out
as §2

For data set [6], the system named is E. coli XDR CI 1057 (26 days without antimicrobial agent). The note with it: Table 4, strain after 26 days without antimicrobial agent (selection in MH broth with 0.9% NaCl). The method, then:
as §1, with “After incubation at 37°C and 900 rpm for 24 h the minimum inhibitory concentrations (MIC) were determined as the lowest peptide concentrations that prevented growth of a test microorganism observed as visible turbidity.” left out
as §2

Data set [7] deals with E. coli XDR CI 1057 (26 days with synergy combination). The note with it: Table 4, strain after 26 days with synergy combination (selection in MH broth with 0.9% NaCl). As for the experimental part: as §1, with “After incubation at 37°C and 900 rpm for 24 h the minimum inhibitory concentrations (MIC) were determined as the lowest peptide concentrations that prevented growth of a test microorganism observed as visible turbidity.” left out
as §2

The test system of data set [8] is K. pneumoniae (XDR CI 1056). The experiment in a line: microbe, parasite or virus in culture. The class given is cell-based, Klebsiella pneumoniae. To be noted: Table S2, XDR clinical isolate; NaCl content of medium not stated; read-out: Minimum inhibitory concentration. As for the experimental part: as §1
The subject of data set [9] is P. aeruginosa (XDR CI 1049). The experiment in a line: microbe, parasite or virus in culture. The class given is cell-based, Pseudomonas aeruginosa. The note with it: Table S2, XDR clinical isolate; NaCl content of medium not stated; read-out: Minimum inhibitory concentration. As for the experimental part: as §1
The subject of the next data set is E. coli XDR CI 1057. The note with it: MH broth, 0.9% NaCl. The method, then:
Resistance induction experiments were performed using the previously described method ([Chernysh et al., 2015]) with some modifications. Briefly, on day 1, the overnight culture of wild-type bacteria was diluted with the 2× MH broth containing 1.8% NaCl so that to reach a final cell concentration of 10^6 CFU/ml. 50 μl aliquots of the obtained bacterial suspension were added to 50 μl of the peptide solutions serially diluted with 0.1% water solution of BSA in 96-well microplates (Eppendorf #0030730011). After incubation at 37°C and 900 rpm for 22 ± 2 h, MICs were determined as described above. For each subsequent daily transfer, 5 μl of the inoculum taken from the first well with a sub-inhibitory drug concentration were diluted with 1 ml of the fresh 2× MH broth supplemented with 1.8% NaCl. […] Control serial passages in the absence of the agent were also performed.

Data set [10] deals with P. mirabilis (XDR CI 3423). The experiment in a line: microbe, parasite or virus in culture. The class given is cell-based, Proteus mirabilis. The note with it: Table S2, XDR clinical isolate; NaCl content of medium not stated; read-out: Minimum inhibitory concentration. The method, then:
as §1

The subject of data set [11] is E. coli V102G mutant strain (SbmA). Further details: method as in Corbalan et al., 2013. To be noted: ref Corbalan et al., 2013; cited from earlier work.
Setting [12] is: Table S2, XDR clinical isolate, NaCl content of medium not stated.

≈ marks a conversion by molar mass, not a printed value. Like-named read-outs stand apart in the source and are kept apart here. Positions of bridges follow the written chain, without caps; N, C: chain ends. Non-standard residues stand in square brackets, D forms with d. Residues, ends and D or L forms follow the SMILES beside them. *: point of attachment. X1 = CC[C@H](C)CCCCC(=O)*; Dab = NCC[C@H](N)C(=O)O

Regarding `CC[C@H](C)[C@H](NC(=O)CN)C(=O)NCC(=O)N[C@@H](C)C(=O)N[C@H](C(=O)N[C@@H](CC(C)C)C(=O)N[C@@H](CCCCN)C(=O)N[C@H](C(=O)N[C@@H](CC(C)C)C(=O)N[C@H](C(=O)N[C@H](C(=O)NCC(=O)N[C@@H](CC(C)C)C(=O)N1CCC[C@H]1C(=O)N[C@@H](C)C(=O)N[C@@H](CC(C)C)C(=O)N[C@H](C(=O)N[C@@H](CO)C(=O)N[C@@H](Cc1c[nH]c2ccccc12)C(=O)N[C@H](C(=O)N[C@@H](CCCCN)C(=O)N[C@@H](CCCNC(=N)N)C(=O)N[C@@H](CCCCN)C(=O)N[C@@H](CCCNC(=N)N)C(=O)N[C@@H](CCC(N)=O)C(=O)N[C@@H](CCC(N)=O)C(N)=O)[C@@H](C)CC)[C@@H](C)CC)[C@@H](C)O)[C@@H](C)O)C(C)C)C(C)C` [Melittin, reference compound], in data set [1], the “concentrations that completely damaged all the cells tested” value was below 2500 nM. Further, the Minimum inhibitory concentration in the data set with M. luteus B-1314 (0.9% NaCl) was 0.5 µM (≈ 1.42 µg/mL); in the data set on M. luteus B-1314 (Without NaCl), 0.25 µM (≈ 0.712 µg/mL); with K. pneumoniae (CI 287) (0.9% NaCl) it was 16 µM (≈ 45.5 µg/mL); in the data set on K. pneumoniae (CI 287) (Without NaCl) it was 4 µM (≈ 11.4 µg/mL); in the data set with B. subtilis B-886 (0.9% NaCl) it was 0.5 µM (≈ 1.42 µg/mL); in the data set with B. subtilis B-886 (Without NaCl), 0.5 µM (≈ 1.42 µg/mL). Besides, the Minimum inhibitory concentration came to 8 µM (≈ 22.8 µg/mL) in the data set on P. aeruginosa PAO1 (0.9% NaCl); 4 µM (≈ 11.4 µg/mL) with P. aeruginosa PAO1 (Without NaCl); 16 µM (≈ 45.5 µg/mL) in the data set on S. aureus 209P (0.9% NaCl); 2 µM (≈ 5.69 µg/mL) in the data set on S. aureus 209P (Without NaCl); 8 µM (≈ 22.8 µg/mL) in the data set with E. coli C600 (0.9% NaCl); 4 µM (≈ 11.4 µg/mL) in the data set with E. coli C600 (Without NaCl). The figures for the Minimum inhibitory concentration in the data set with E. coli ML-35p [3] (0.9% NaCl) and in the data set on E. coli ML-35p [3] (Without NaCl) were 8 µM (≈ 22.8 µg/mL) and 2 µM (≈ 5.69 µg/mL), respectively. The MIC was 8 µM (≈ 22.8 µg/mL) in data set [2] (0.9% NaCl, Mueller-Hinton broth, 10^6 CFU/ml, 0.1% BSA, 37°C, 24 h, median of at least 3 experiments) and 2 µM (≈ 5.69 µg/mL) in data set [2] (Without NaCl, Mueller-Hinton broth, 10^6 CFU/ml, 0.1% BSA, 37°C, 24 h, median of at least 3 experiments).
As to `CC[C@H](C)CCCCC(=O)N[C@@H](CCN)C(=O)N[C@H](C(=O)N[C@@H](CCN)C(=O)N[C@H]1CCNC(=O)[C@H]([C@@H](C)O)NC(=O)[C@H](CCN)NC(=O)[C@H](CCN)NC(=O)[C@H](CC(C)C)NC(=O)[C@@H](Cc2ccccc2)NC(=O)[C@H](CCN)NC1=O)[C@@H](C)O` [Polymyxin B, reference compound] (X1-[Dab]T[Dab][Dab][Dab][dF]L[Dab][Dab]T; lactam 4-C (inferred); N-terminus assumed), the Minimum inhibitory concentration amounted to 0.125 µM (≈ 0.15 µg/mL) in the data set on E. coli (XDR CI 1057) (Table 4, strain at 0 days of selection experiment (selection in MH broth with 0.9% NaCl)); 0.125 µM (≈ 0.15 µg/mL) with E. coli (XDR CI 1057) (setting [12]); 0.125 µM (≈ 0.15 µg/mL) in data set [5]; 0.125 µM (≈ 0.15 µg/mL) in data set [6]; 0.06 µM in data set [7]. Moreover, the MIC in the data set on E. cloacae (XDR CI 4172) is recorded as 4 µM (≈ 4.81 µg/mL); in [2] (setting [12]) it was 0.125 µM (≈ 0.15 µg/mL); in data set [8] it was 0.25 µM (≈ 0.301 µg/mL); in data set [9], 2 µM (≈ 2.41 µg/mL); in data set [10], above 128 µM. For the same molecule, the “increase in MIC value” with E. coli ML-35p [4] turned out to be 128 fold; in the data set with E. coli XDR CI 1057 (after 25 passages under selection), 2048 fold. The “MIC value after resistance development” value against E. coli XDR CI 1057 (selection by polymyxin B) is above 256 µM.
Regarding “Bac7(1–16): minimal active fragment of the bovine 60-residue Pro-rich peptide Bac7 (RRIRPRPPRLPRPRPR; Bactenecin 7; UniProt P19661 131-146, looked up, fragment)”, the MIC in data set [11] is 156 µM.
